Target: Mitogen-activated protein kinase 1 (Mus musculus, UniProt P63085)
Assay: Active ERK2 (aERK) Assay: Activated ERK2 activity was also determined in the IMAP assay format using the procedure outlined above. 1 μl of 25× compound was added to 14 μl of kinase buffer containing 0.25 ng fully phosphorylated, active Mouse ERK2 protein. Following a 30 minute incubation, the reactions were initiated by addition of 10 μl of kinase buffer containing 1 μM ERK2 IMAP substrate peptide (0.9 μM unlabeled IPTTPITTTYFFFK-CONH2 and 100 nM IPTTPITTTYFFFK(5-carboxyfluorescein)-CONH2) and 30 μM ATP. Reactions proceeded for 30 minutes before termination by addition of 60 μl IMAP detection beads in binding buffer. Plates were read as above after 30 minute binding equilibration. Active compounds were reconfirmed in an independent assay.

Sequence of Mitogen-activated protein kinase 1 (P63085 whole entry): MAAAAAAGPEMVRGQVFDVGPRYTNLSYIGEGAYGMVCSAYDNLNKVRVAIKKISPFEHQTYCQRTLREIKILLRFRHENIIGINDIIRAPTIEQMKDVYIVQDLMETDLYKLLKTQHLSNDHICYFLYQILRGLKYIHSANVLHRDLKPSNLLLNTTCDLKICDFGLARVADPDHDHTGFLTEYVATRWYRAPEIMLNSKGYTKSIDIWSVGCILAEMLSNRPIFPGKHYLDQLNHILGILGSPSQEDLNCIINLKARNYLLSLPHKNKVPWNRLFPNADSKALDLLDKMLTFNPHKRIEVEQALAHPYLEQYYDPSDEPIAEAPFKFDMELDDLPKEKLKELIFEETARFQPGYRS

IC50	Compound
0.404 µM	Cc1cc(-c2n[nH]c3ccc(C(=O)N[C@@H]4CCC[C@](O)(Cn5cc6cccnc6n5)C4)cc23)ccn1 (relative stereo)
0.772 µM	Cc1cc(-c2n[nH]c3ccc(C(=O)N[C@H]4CCC[C@@](O)(Cn5cc6cc(F)ccc6n5)C4)cc23)ccn1 (relative stereo)
